Measurements from patent US10130633B2, “Compounds” (BAYER PHARMA AKTIENGESELLSCHAFT, priority 2013, dated 2018).
Structures can show the parent of a compound that is named as a salt. Where two headings read alike, the source gives them in different places.

Legend:
[1] = system: constitutive active colorectal cancer cell (CRC) Wnt pathway; test: HCT116 TOPFlash cellular reporter assay (Super TopFlash luciferase), constitutive active Wnt pathway; format: cell-based; conditions: HCT116 TOP reporter cells, 36 hours incubation, luciferase expression
Description: In order to discover and characterize small molecules which inhibit the constitutive active colorectal cancer cell (CRC) Wnt pathway, a cellular reporter assay was employed. […] Stable transfectants were generated by cotransfection with pcDNA3 and selection of stable transfected cells with 1 mg/ml G418.

[2] = system: wildtype Wnt pathway; test: HEK293 TOP reporter assay, wildtype Wnt pathway stimulated with Wnt-3a; format: cell-based, human
Description: (§1) Measurement of luciferase expression was done as described for the constitutive active Wnt assay.
In order to discover and characterize small molecules which inhibit the wildtype Wnt pathway, a cellular reporter assay was employed. […] Stable transfectants were generated by selection with 300 μg/ml Hygromycin.

[3] = system: HCT116 FOP control reporter cell line; test: HCT116 FOPFlash control reporter assay (FOP control vector, non-functional TCF elements); format: cell-based; conditions: HCT116 FOP control reporter cells, 36 hours incubation, luciferase expression
Excerpt: (§2) In a parallel approach, HCT116 cells were cotransfected with the FOP control vector and pcDNA3. The FOP vector is identical to the TOP construct, but it contains instead of functional TCF elements a randomized, non-functional sequence. For this transfection a stable transfected cell line was generated as well.

[4] = system: HEK293 FOP control reporter cell line; test: HEK293 FOP control reporter assay; format: cell-based, human; conditions: read-out: HEK FOP IC50
Description: as §1
as §2, with “HEK293” for “HCT116”, “well, based on selection with Geneticin (1 mg/ml).” for “well.”

[5] = HEK293 FOP control cells, EC50 concentration of recombinant Wnt-3a, 16 hours
[6] = Homo sapiens, HEK293, 16 h; read-out: HEK TOP OncoFlash IC50

Compound: CN1CCN(CC(=O)Nc2cc(C(=O)Nc3ccc(-c4ccccc4)cn3)ccc2OC(F)(F)F)CC1 [Example 132, 3-{[(4-methylpiperazin-1-yl)acetyl]amino}-N-(5-phenylpyridin-2-yl)-4-(trifluoromethoxy)benzamide formiate]
- IC50 [1]: 0.0355 µM
- IC50 ([2]; HEK293 TOP cells, EC50 concentration of recombinant Wnt-3a, 16 hours; read-out: HEK TOP OncoFlash IC50): 0.07 µM
- IC50 [3]: 20 µM
- IC50 [4, 5]: 11 µM

Compound: COc1ccc(NC(=O)c2ccc(-c3ccccc3F)nc2)cc1NC(=O)C1(N2CCOCC2)CC1 [Example 62, 6-(2-fluorophenyl)-N-[4-methoxy-3-({[1-(morpholin-4-yl)cyclopropyl]carbonyl}amino)phenyl]nicotinamide]
- IC50 ([1]; Homo sapiens, HCT-116, 36 h): 0.0673 µM
- IC50 [2, 6]: 0.18 µM
- IC50 ([3]; Homo sapiens, HCT-116, 36 h): ≥ 50 µM
- IC50 ([4]; Homo sapiens, HEK293, 16 h): ≥ 50 µM

Compound: O=C(CN1CCOCC1)Nc1cc(NC(=O)c2ccc(-c3ccccc3)nc2)ccc1OC(F)(F)F [Example 33, N-{3-[(morpholin-4-ylacetyl)amino]-4-(trifluoromethoxy)phenyl}-6-phenylnicotinamide]
- IC50 ([1]; Homo sapiens, HCT-116, 36 h): 0.111 µM
- IC50 [2, 6]: 0.37 µM
- IC50 ([3]; Homo sapiens, HCT-116, 36 h): ≥ 50 µM
- IC50 ([4]; Homo sapiens, HEK293, 16 h): 7.4 µM

Compound: NC(=O)c1ccc(C(=O)Nc2nnc(-c3ccccc3)s2)cc1NC(=O)C1(N2CCOCC2)CC1 [Example 56, 2-({[1-(morpholin-4-yl)cyclopropyl]carbonyl}amino)-N-4-(5-phenyl-1,3,4-thiadiazol-2-yl)terephthalamide]
- IC50 ([1]; Homo sapiens, HCT-116, 36 h): 0.104 µM
- IC50 [2, 6]: 0.19 µM
- IC50 ([3]; Homo sapiens, HCT-116, 36 h): ≥ 50 µM
- IC50 ([4]; Homo sapiens, HEK293, 16 h): ≥ 50 µM

Compound: O=C(CN1CCOCC1)Nc1cc(NC(=O)c2ccc(-c3ccccc3F)nc2)ccc1OC(F)(F)F [Example 30, 6-(2-fluorophenyl)-N-{3-[(morpholin-4-ylacetyl)amino]-4-(trifluoromethoxy)phenyl}nicotinamide]
- IC50 ([1]; Homo sapiens, HCT-116, 36 h): 0.0901 µM
- IC50 [2, 6]: 1.4 µM
- IC50 ([3]; Homo sapiens, HCT-116, 36 h): ≥ 50 µM
- IC50 ([4]; Homo sapiens, HEK293, 16 h): ≥ 50 µM

Compound: COc1ccc(NC(=O)c2ccc(-c3ccccc3)s2)cc1NC(=O)CN1CCOCC1 [Example 25, N-{4-methoxy-3-[(morpholin-4-ylacetyl)amino]phenyl}-5-phenylthiophene-2-carboxamide]
- IC50 ([1]; Homo sapiens, HCT-116, 36 h): 0.326 µM
- IC50 [2, 6]: 0.09 µM
- IC50 ([3]; Homo sapiens, HCT-116, 36 h): ≥ 50 µM
- IC50 ([4]; Homo sapiens, HEK293, 16 h): 10 µM

Compound: N-[6-(2-fluorophenyl)pyridin-3-yl]-3-{[(2S)-2-(4-methylpiperazin-1-yl)propanoyl]amino}-4-(trifluoromethoxy)benzamide or N-[6-(2-fluorophenyl)pyridin-3-yl]-3-{[(2R)-2-(4-methylpiperazin-1-yl)propanoyl]amino}-4-(trifluoromethoxy)benzamide [Example 66]
- IC50 [1]: 0.011 µM
- IC50 [3]: ≥ 50 µM
- IC50 [4, 5]: ≥ 50 µM

Compound: O=C(Nc1ccc(-c2ccccc2F)nc1)c1ccc(OC2CC2)c(NC(=O)C2(N3CCOCC3)CC2)c1 [Example 134, 4-(cyclopropyloxy)-N-[6-(2-fluorophenyl)pyridin-3-yl]-3-({[1-(morpholin-4-yl)cyclopropyl]carbonyl}amino)benzamide]
- IC50 ([1]; Homo sapiens, HCT-116, 36 h): 0.0166 µM
- IC50 [2, 6]: 0.031 µM
- IC50 ([3]; Homo sapiens, HCT-116, 36 h): 5.2 µM
- IC50 ([4]; Homo sapiens, HEK293, 16 h): 12 µM

Compound: C[C@@H](C(=O)Nc1cc(C(=O)Nc2ccc(-c3ccccc3F)nc2)ccc1OC(F)(F)F)N1CCN(C)CC1 (single isomer, unassigned) [Example 65, N-[6-(2-fluorophenyl)pyridin-3-yl]-3-{[(2S)-2-(4-methylpiperazin-1-yl)propanoyl]amino}-4-(trifluoromethoxy)benzamide or N-[6-(2-fluorophenyl)pyridin-3-yl]-3-{[(2R)-2-(4-methylpiperazin-1-yl)propanoyl]amino}-4-(trifluoromethoxy)benzamide]
- IC50 [3]: ≥ 50 µM
- IC50 [4, 5]: ≥ 50 µM

Compound: COCc1ccc(C(=O)Nc2nnc(-c3ccccc3)s2)cc1NC(=O)C1(N2CCN(C)CC2)CC1 [Example 45, 4-(methoxymethyl)-3-({[1-(4-methylpiperazin-1-yl)cyclopropyl]carbonyl}amino)-N-(5-phenyl-1,3,4-thiadiazol-2-yl)benzamide hydrochloride (1:1)]
- IC50 ([1]; Homo sapiens, HCT-116, 36 h): 0.198 µM
- IC50 ([2]; Homo sapiens, HEK293, 16 h, read-out: HEK TOP OncoFlash IC50): 0.19 µM
- IC50 ([3]; Homo sapiens, HCT-116, 36 h): 26.5 µM
- IC50 ([4]; Homo sapiens, HEK293, 16 h): ≥ 50 µM

Compound: CC(=O)Nc1ccc(-c2ccc(NC(=O)c3ccc(OC(F)(F)F)c(NC(=O)C(C)N4CCOCC4)c3)cn2)cc1 (stereo not shown) [Example 113, N-[6-(4-acetamidophenyl)pyridin-3-yl]-3-{[2-(morpholin-4-yl)propanoyl]amino}-4-(trifluoromethoxy)benzamide]
- IC50 ([4]; Homo sapiens, HEK293, 16 h): ≥ 50 µM

Compound: O=C(Nc1ccc(-c2ccccc2F)nc1)c1ccc(OC(F)(F)F)c(NC(=O)C2(N3CCOCC3)CC2)c1 [Example 68, N-[6-(2-fluorophenyl)pyridin-3-yl]-3-({[1-(morpholin-4-yl)cyclopropyl]carbonyl}amino)-4-(trifluoromethoxy)benzamide]
- IC50 ([4]; Homo sapiens, HEK293, 16 h): ≥ 50 µM

Compound: O=C(Nc1ccc(-c2ccccc2F)nc1)c1ccc(OC2CC2)c(NC(=O)C2(N3CCN(C4CC4)CC3)CC2)c1 [Example 136, 4-(cyclopropyloxy)-3-({[1-(4-cyclopropylpiperazin-1-yl)cyclopropyl]carbonyl}amino)-N-[6-(2-fluorophenyl)pyridin-3-yl]benzamide]
- IC50 ([4]; Homo sapiens, HEK293, 16 h): ≥ 50 µM

Compound: O=C(Nc1ccc(-c2cc(F)cc(F)c2)nc1)c1ccc(OC(F)(F)F)c(NC(=O)C2(N3CCOCC3)CC2)c1 [Example 71, N-[6-(3,5-difluorophenyl)pyridin-3-yl]-3-({[1-(morpholin-4-yl)cyclopropyl]carbonyl}amino)-4-(trifluoromethoxy)benzamide]
- IC50 ([4]; Homo sapiens, HEK293, 16 h): ≥ 50 µM

Compound: CC(C(=O)Nc1cc(C(=O)Nc2nnc(-c3ccccc3)s2)ccc1OC(F)(F)F)N1CCOCC1 (stereo not shown) [Example 57, 3-{[2-(morpholin-4-yl)propanoyl]amino}-N-(5-phenyl-1,3,4-thiadiazol-2-yl)-4-(trifluoromethoxy)benzamide]
- IC50 [3]: ≥ 50 µM
- IC50 ([4]; Homo sapiens, HEK293, 16 h): ≥ 50 µM

Compound: C[C@@H](C(=O)Nc1cc(C(=O)Nc2ccc(-c3ccccc3F)nc2)ccc1OC(F)(F)F)N1CCOCC1 (single isomer, unassigned) [Example 9, N-[6-(2-fluorophenyl)pyridin-3-yl]-3-{[(2S)-2-(morpholin-4-yl)propanoyl]amino}-4-(trifluoromethoxy)benzamide or N-[6-(2-fluorophenyl)pyridin-3-yl]-3-{[(2R)-2-(morpholin-4-yl)propanoyl]amino}-4-(trifluoromethoxy)benzamide]
- IC50 [4, 5]: 8.2 µM

Compound: O=C(CN1CCN(C2CC2)CC1)Nc1cc(C(=O)Nc2nnc(-c3ccccc3)s2)ccc1OC(F)F [Example 41, 3-{[(4-cyclopropylpiperazin-1-yl)acetyl]amino}-4-(difluoromethoxy)-N-(5-phenyl-1,3,4-thiadiazol-2-yl)benzamide]
- IC50 ([4]; Homo sapiens, HEK293, 16 h): ≥ 50 µM

Compound: O=C(CN1CCOCC1)Nc1cc(NC(=O)c2ccc(-c3cc(F)cc(F)c3)nc2)ccc1OC(F)(F)F [Example 27, 6-(3,5-difluorophenyl)-N-{3-[(morpholin-4-ylacetyl)amino]-4-(trifluoromethoxy)phenyl}nicotinamide]
- IC50 ([4]; Homo sapiens, HEK293, 16 h): ≥ 50 µM

Compound: O=C(CN1CCOCC1)Nc1cc(NC(=O)c2ccc(-c3cccc(F)c3F)nc2)ccc1OC(F)(F)F [Example 26, 6-(2,3-difluorophenyl)-N-{3-[(morpholin-4-ylacetyl)amino]-4-(trifluoromethoxy)phenyl}nicotinamide]
- IC50 ([4]; Homo sapiens, HEK293, 16 h): ≥ 50 µM

Compound: COc1ccc(NC(=O)c2ncc(-c3ccccc3)o2)cc1NC(=O)CN1CCOCC1 [Example 20, N-{4-methoxy-3-[(morpholin-4-ylacetyl)amino]phenyl}-5-phenyl-1,3-oxazole-2-carboxamide]
- IC50 ([4]; Homo sapiens, HEK293, 16 h): ≥ 50 µM

Compound: COCc1ccc(C(=O)Nc2nnc(-c3ccccc3)s2)cc1NC(=O)C1(N2CCN(C3CC3)CC2)CC1 [Example 44, 3-({[1-(4-cyclopropylpiperazin-1-yl)cyclopropyl]carbonyl}amino)-4-(methoxymethyl)-N-(5-phenyl-1,3,4-thiadiazol-2-yl)benzamide]
- IC50 ([4]; Homo sapiens, HEK293, 16 h): ≥ 50 µM

Compound: Cc1ccc(C(=O)Nc2ccc(-c3ccccc3F)nc2)cc1NC(=O)C1(N2CCOCC2)CC1 [Example 76, N-[6-(2-fluorophenyl)pyridin-3-yl]-4-methyl-3-({[1-(morpholin-4-yl)cyclopropyl]carbonyl}amino)benzamide]
- IC50 ([4]; Homo sapiens, HEK293, 16 h): ≥ 50 µM

Compound: CC(C(=O)Nc1cc(C(=O)Nc2ccc(-c3ccc(N)cc3)nc2)ccc1OC(F)(F)F)N1CCOCC1 (stereo not shown) [Example 111, N-[6-(4-aminophenyl)pyridin-3-yl]-3-{[2-(morpholin-4-yl)propanoyl]amino}-4-(trifluoromethoxy)benzamide]
- IC50 ([4]; Homo sapiens, HEK293, 16 h): ≥ 50 µM

Compound: O=C(Nc1ccc(-c2ccccc2F)nc1)c1ccc(OC(F)(F)F)c(NC(=O)C2(N3CCN(C4CC4)CC3)CC2)c1 [Example 67, 3-({[1-(4-cyclopropylpiperazin-1-yl)cyclopropyl]carbonyl}amino)-N-[6-(2-fluorophenyl)pyridin-3-yl]-4-(trifluoromethoxy)benzamide]
- IC50 ([4]; Homo sapiens, HEK293, 16 h): ≥ 50 µM
